One series is described as follows: Association constant required to reduce the S-peptide / S-protein association by nonlinear curve fitting analysis. The series is classed as ADME.
Regarding H-KEEAAEKFERQHMDS-OH, the “Log K” value was 6.9. Still for that read-out and setting: as for H-KEEAAAKFERQHMDS-OH, the figure is 7.1; as for H-EETAEAKFERQHMDS-OH, 6.5; as for H-KETAAAKFERQHMDS-OH, 7.6. The same measure, in the same setting: the figure for H-KEDAADKFERQHMDS-OH is 7.1.

The nature of a further series: Binding constant for spermine binding to Ribonuclease S (RNA ase) by saturation curve method.
Regarding `NCCCCNCCCN`, the Log K was 5.4. Same read-out and setting: the figure for `C1CNCCNCCNCCN1` is 3.7; for `NCCN(CCN)CCN` it is 5; for `NCCNCCNCCN` it is 5. Same read-out and setting: the figure for `NCCCNCCCCNCCCN` is 5.

(Values after ChEMBL document CHEMBL1131685, “Design and semisynthesis of spermine-sensitive Ribonuclease S'” (Bioorg Med Chem Lett, 1999).)
